{"source": "paper PMC3004258", "about": "“Structure of the inhibitor complex of old yellow enzyme from Trypanosoma cruzi” (Journal of Synchrotron Radiation, 2010)", "biological_target": "T1, TcOYE (old yellow enzyme from Trypanosoma cruzi; PGF2alpha synthase) (Trypanosoma cruzi, UniProt Q8I6L9)", "T1 construct": "gene TcPGFS; recombinant, overexpressed in E. coli and purified; 2 molecules per asymmetric unit; residues up to at least 379", "T1 sequence (Q8I6L9 1-379)": "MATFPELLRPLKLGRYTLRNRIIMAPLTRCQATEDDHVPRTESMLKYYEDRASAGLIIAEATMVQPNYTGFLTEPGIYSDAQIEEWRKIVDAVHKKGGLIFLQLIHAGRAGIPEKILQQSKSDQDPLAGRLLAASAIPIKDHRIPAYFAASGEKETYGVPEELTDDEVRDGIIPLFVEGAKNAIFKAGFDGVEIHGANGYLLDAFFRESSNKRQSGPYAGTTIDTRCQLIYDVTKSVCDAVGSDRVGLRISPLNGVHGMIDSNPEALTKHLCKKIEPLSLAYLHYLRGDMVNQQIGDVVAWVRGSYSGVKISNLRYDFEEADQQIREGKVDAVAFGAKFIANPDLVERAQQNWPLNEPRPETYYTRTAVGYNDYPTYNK", "assay": "X-ray crystallography, […] Å", "assay_type": "binding", "settings": "TcOYE/FMN binary complex; prosthetic group at C-terminal ends of barrel strands", "data": [{"compound": "Cc1cc2nc3c(=O)[nH]c(=O)nc-3n(C[C@H](O)[C@H](O)[C@H](O)COP(=O)(O)O)c2cc1C", "note": "[FMN]", "values": [{"measurement": "X-ray crystallography, 1.7 Å", "result": "The structure of TcOYE/FMN binary complex was determined by molecular replacement methods"}]}]}
